ChEMBL document CHEMBL1201862, “PubChem BioAssay data set” (2004)
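These data come from cells grown in 96-well plates and exposed to compound for 48 hours at five concentrations. GI50 is the concentration that inhibits growth by half.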 Calls of active or inactive are those of the source. Cut-off read from the data, not from the text of the source: active = GI50 up to about 1.1 µM and inactive = higher.

Tests used:
Assay in all cases: growth of human tumour cells (NCI), 48 h
[1] = test system: TK-10
[2] = test system: COLO 205
[3] = test system: SNB-19
[4] = test system: SW-620
[5] = test system: CAKI-1
[6] = test system: PC-3
[7] = test system: RXF 393
[8] = test system: T47D
[9] = test system: SK-MEL-2
[10] = test system: M14
[11] = test system: DU-145
[12] = test system: NCI/ADR-RES
[13] = test system: HCT-116
[14] = test system: SF-539
[15] = test system: RPMI-8226
[16] = test system: NCI-H460
[17] = test system: NCI-H522
[18] = test system: IGROV-1
[19] = test system: OVCAR-8
[20] = test system: BT-549

Compound	GI50 [1]	GI50 [2]	GI50 [3]	GI50 [4]	GI50 [5]	GI50 [6]	GI50 [7]	GI50 [8]	GI50 [9]	GI50 [10]	GI50 [11]	GI50 [12]	GI50 [13]	GI50 [14]	GI50 [15]	GI50 [16]	GI50 [17]	GI50 [18]	GI50 [19]	GI50 [20]
O=C1/C(=C/c2ccc(Cl)cc2)N=C(c2ccccc2)N1c1ccc(S(=O)(=O)Nc2nccs2)cc1	70.5 µM (inactive)	20.6 µM (inactive)	40.7 µM (inactive)	39.8 µM (inactive)	> 100 µM (inactive)	31.6 µM (inactive)	33.4 µM (inactive)	21.7 µM (inactive)	16 µM (inactive)	47.5 µM (inactive)	> 100 µM (inactive)	60.5 µM (inactive)	33.5 µM (inactive)	88.3 µM (inactive)	17.4 µM (inactive)	57.1 µM (inactive)	–	–	–	–
CSc1ccc(C(=O)C(=O)c2ccc(SC)s2)s1	> 10 µM (inactive)	> 10 µM (inactive)	> 10 µM (inactive)	> 10 µM (inactive)	> 10 µM (inactive)	> 10 µM (inactive)	> 10 µM (inactive)	> 10 µM (inactive)	> 10 µM (inactive)	> 10 µM (inactive)	> 10 µM (inactive)	8.45 µM (inactive)	> 10 µM (inactive)	4.85 µM (inactive)	4.86 µM (inactive)	> 10 µM (inactive)	> 10 µM (inactive)	> 10 µM (inactive)	> 10 µM (inactive)	–
CC1(C)C(=O)N=C(N)N1C(=O)OCc1ccccc1	> 100 µM (inactive)	> 100 µM (inactive)	> 100 µM (inactive)	> 100 µM (inactive)	> 100 µM (inactive)	> 100 µM (inactive)	–	> 100 µM (inactive)	> 100 µM (inactive)	> 100 µM (inactive)	> 100 µM (inactive)	> 100 µM (inactive)	> 100 µM (inactive)	> 100 µM (inactive)	> 100 µM (inactive)	> 100 µM (inactive)	> 100 µM (inactive)	> 100 µM (inactive)	> 100 µM (inactive)	> 100 µM (inactive)
CC#CC(O)(C(=O)OC1CCCN(C)C1)C1=CC=CCC1 (centres undefined)	> 100 µM (inactive)	> 100 µM (inactive)	> 100 µM (inactive)	> 100 µM (inactive)	> 100 µM (inactive)	> 100 µM (inactive)	> 100 µM (inactive)	> 100 µM (inactive)	> 100 µM (inactive)	> 100 µM (inactive)	> 100 µM (inactive)	0.49 µM (active)	> 100 µM (inactive)	> 100 µM (inactive)	> 100 µM (inactive)	> 100 µM (inactive)	> 100 µM (inactive)	> 100 µM (inactive)	> 100 µM (inactive)	–
CC1(C)S[C@@H]2[C@H](NC(=O)/C=C/c3ccccc3)C(=O)N2[C@H]1C(=O)O	> 100 µM (inactive)	> 100 µM (inactive)	> 100 µM (inactive)	> 100 µM (inactive)	> 100 µM (inactive)	> 100 µM (inactive)	–	> 100 µM (inactive)	> 100 µM (inactive)	> 100 µM (inactive)	> 100 µM (inactive)	> 100 µM (inactive)	> 100 µM (inactive)	> 100 µM (inactive)	> 100 µM (inactive)	> 100 µM (inactive)	> 100 µM (inactive)	> 100 µM (inactive)	> 100 µM (inactive)	> 100 µM (inactive)
COc1ccc(S(=O)(=O)Nc2ccc(-c3csc(N4C(=O)/C(=C/c5ccccc5)N=C4c4ccccc4)n3)cc2)cc1Cl	47.4 µM (inactive)	34.5 µM (inactive)	44.2 µM (inactive)	43.7 µM (inactive)	62.8 µM (inactive)	25.4 µM (inactive)	24.4 µM (inactive)	17.9 µM (inactive)	25.9 µM (inactive)	24.8 µM (inactive)	27.8 µM (inactive)	45.4 µM (inactive)	35.3 µM (inactive)	41.6 µM (inactive)	–	31.3 µM (inactive)	39 µM (inactive)	38.6 µM (inactive)	31.5 µM (inactive)	–
O=C1CC(c2ccc([N+](=O)[O-])cc2)C2(C(=O)NC(=S)NC2=O)C(c2ccc([N+](=O)[O-])cc2)C1 (centres undefined)	16.3 µM (inactive)	33.5 µM (inactive)	17.5 µM (inactive)	29.7 µM (inactive)	–	30.5 µM (inactive)	–	51.3 µM (inactive)	–	19 µM (inactive)	31.8 µM (inactive)	31.6 µM (inactive)	16.7 µM (inactive)	33.7 µM (inactive)	42.9 µM (inactive)	21.8 µM (inactive)	18.9 µM (inactive)	16.3 µM (inactive)	19.3 µM (inactive)	17 µM (inactive)
N#Cc1[nH]c(=O)n(-c2ccc([N+](=O)[O-])cc2)c1N	> 10 µM (inactive)	> 10 µM (inactive)	> 10 µM (inactive)	> 10 µM (inactive)	–	> 10 µM (inactive)	> 10 µM (inactive)	> 10 µM (inactive)	> 10 µM (inactive)	> 10 µM (inactive)	> 10 µM (inactive)	> 10 µM (inactive)	> 10 µM (inactive)	> 10 µM (inactive)	> 10 µM (inactive)	7.64 µM (inactive)	> 10 µM (inactive)	> 10 µM (inactive)	> 10 µM (inactive)	–
O=C(Cc1ccccc1)N/N=C/c1ccccc1O	22.4 µM (inactive)	4.09 µM (inactive)	33.1 µM (inactive)	19.3 µM (inactive)	5.92 µM (inactive)	82.6 µM (inactive)	–	4.29 µM (inactive)	> 100 µM (inactive)	10.5 µM (inactive)	23.3 µM (inactive)	3.98 µM (inactive)	7.55 µM (inactive)	24.8 µM (inactive)	15.9 µM (inactive)	5.6 µM (inactive)	13.2 µM (inactive)	7.85 µM (inactive)	8.93 µM (inactive)	27.9 µM (inactive)
CNC(=O)c1nn[nH]c1O	–	> 100 µM (inactive)	> 100 µM (inactive)	> 100 µM (inactive)	> 100 µM (inactive)	> 100 µM (inactive)	> 100 µM (inactive)	> 100 µM (inactive)	> 100 µM (inactive)	> 100 µM (inactive)	> 100 µM (inactive)	> 100 µM (inactive)	> 100 µM (inactive)	–	> 100 µM (inactive)	> 10 µM (inactive)	> 100 µM (inactive)	> 100 µM (inactive)	> 100 µM (inactive)	–
NC(=O)c1nnsc1NN=O	–	> 100 µM (inactive)	> 100 µM (inactive)	> 100 µM (inactive)	> 100 µM (inactive)	> 100 µM (inactive)	> 100 µM (inactive)	> 100 µM (inactive)	> 100 µM (inactive)	> 100 µM (inactive)	> 100 µM (inactive)	> 100 µM (inactive)	> 100 µM (inactive)	> 100 µM (inactive)	> 100 µM (inactive)	> 100 µM (inactive)	> 100 µM (inactive)	> 100 µM (inactive)	> 100 µM (inactive)	–
